Legend:
Set-up in all cases: species or system AML cell lines (8); Primary HTS, single concentration about 10 uM, Cell Titer Glo viability; log10 luminescence, per cent inhibition relative to cycloheximide control
Conditions in all cases: 72 h, relative to cycloheximide control, log10 luminescence; inhibitor
[1] = system: CHRF288-11
[2] = system: CMK
[3] = system: CMS
[4] = system: M07e
[5] = system: ML-2
[6] = system: MOLM-13
[7] = system: MV4-11
[8] = system: U937

Row | Structure (SMILES) | CHRF288-11 %inh [1] [%] | CMK %inh [2] [%] | CMS %inh [3] [%] | M07e %inh [4] [%] | ML-2 %inh [5] [%] | MOLM-13 %inh [6] [%] | MV4-11 %inh [7] [%] | U937 %inh [8] [%]
1 | Cc1ccc(C(=O)NC2CC2)cc1-c1ccc2[nH]ncc2c1 [SJ000573272-1, R8615/48/1] | 1.821 | 0.7696 | 0.2308 | 0.6909 | 0.7274 | -2.369 | 1.257 | 1.222
2 | CCCN1CCC=C(c2ccc(Nc3nc(Nc4ccccc4C(N)=O)c4cc[nH]c4n3)c(C)c2)C1 [SJ000573273-1, U22972/6/1] | 54.2 | 24.28 | 2.734 | 19.9 | 20.08 | 49.41 | 28.66 | 14.36
3 | COc1cc(Nc2nccc(-c3cnn4ncccc34)n2)cc(OC)c1 [SJ000573274-1, U16419/146/1] | 52.5 | 84.54 | 100.2 | 113.9 | 59.09 | 76.09 | 76.66 | 80.29
4 | CC(C)c1ccc(-c2cc(-c3c[nH]nc3-c3ccccn3)ccn2)cc1 [SJ000573275-1, FVLN/241/7/1] | 9.433 | 0.9087 | -0.3112 | 2.317 | 1.414 | 2.021 | 4.536 | 0.007743
5 | Fc1ccc(-c2cc(-c3c[nH]nc3-c3ccccn3)ccn2)cc1 [SJ000573276-1, FCJB/213/107/1] | -1.896 | 15.4 | -1.917 | -1.13 | 4.336 | 10.74 | 1.718 | 16.91
6 | COc1ccc(-c2cc(-c3c[nH]nc3-c3ccccn3)ccn2)cc1 [SJ000573277-1, FFJG/208/167/1] | 12.63 | 4.937 | 0.9761 | 1.202 | -0.1507 | 2.31 | 4.2 | 7.208
7 | Nc1nc(-c2ccccn2)c(-c2ccc3ncccc3n2)s1 [SJ000573278-1, FAMP/256/57/4] | 2.264 | 2.499 | 0.3275 | 0.9531 | 2.846 | 2.605 | -2.996 | -0.9094
8 | c1ccc(-c2n[nH]cc2-c2ccnc(-c3ccc(OCCN4CCOCC4)cc3)c2)nc1 [SJ000573279-1, FVLN/241/86/2] | 1.18 | 0.1656 | -2.932 | -4.621 | -0.6736 | 4.641 | 1.132 | -1.579
9 | CN(c1ccc(NC(=O)Nc2ccc(OC(F)(F)F)cc2)cc1)c1ccnc(Nc2cccc(S(N)(=O)=O)c2)n1 [SJ000573281-1, U17983/20/3] | 54 | 57.59 | 4.771 | 21.34 | 11.59 | 77.33 | 82.54 | 20.62
10 | N#Cc1c(NC(=O)c2ccc(F)cc2)sc2c1CCCC2 [SJ000573282-1, R15619/128/1] | 20.67 | 5.634 | 0.2829 | 6.55 | 2.372 | 3.13 | -0.9119 | 2.356
11 | Cc1c2ccc(N(C)c3ccnc(Nc4cccc(S(N)(=O)=O)c4)n3)cc2nn1C [SJ000573283-1, U17574/40/1] | 6.19 | 33.97 | 2.522 | 4.447 | 3.984 | 26.58 | 13.33 | 17.32
12 | COc1cc2c(cc1Nc1nc(Nc3cccc(F)c3C(N)=O)c3cc[nH]c3n1)N(C(=O)CN1CCN(C(C)C)CC1)CC2 [SJ000573284-1, U23773/22/1] | 156 | 28.42 | 4.776 | -2.07 | 60.74 | 110 | -1.565 | -4.151

From article PMC6522510 (Nature Communications, 2019)
